Reference: US6455593B1, “Method of dynamic retardation of cell cycle kinetics to potentiate cell damage” (priority 1995, dated 2002)
Where two headings read alike, the source gives them in different places.

System: human promonocytic lymphoma cells (U937)
Test: Microculture indicator system (MIS), MTT growth inhibition assay with bivariate serial dilutions
Format: cell-based
Conditions: Homo sapiens
Experimental: Microcultures of human promonocytic lymphoma cells (U937) (“the U937 cells”) originally obtained from the American Type Culture Collection (CRL 1593) and later grown by Dr. K. Zoon at the FDA in Bethesda, Md. were set up in a multiwell plate with serial two-fold dilutions of dThd in tissue culture growth medium (RPMI 1640 plus 10% Nurserum and antibiotics). The volume of medium per well was 100 μl and the cell number per well was about 1×10^5. The plate was incubated at 37° C. for 24 hr.
A dye, 3-[4,5-dimethylthiazol-2-yl]-2,5-diphenyl-tetrazolium bromide (MTT), was used as a chromogenic indicator of the metabolically active cell mass. Viable cells metabolize the dye and accumulate a reduced formazan product (blue color) which is solubilized for colorimetry. Mossman T, J. Immunol. Methods 5:55-63 (1983); Li L and Lau B H S, In Vitro Cell Dev. Biol. 29A:531-536 (1993). The MTT assay has been established as useful for measuring either growth inhibition or population killing. Plowman, supra. The MTT method is ideal for cells tested in suspension growth, and can also be used for some cells growing in monolayers. […] Alley, supra; Hofs, supra; Wilson J K et al., Br. J. Cancer 62:189-94 (1990); Plowman, supra.
Thirty μl of 0.5% MTT in phosphate buffered saline was added to each microculture well at the appropriate time. After incubation at 37° C. for 3 hr, 120 μl of an aqueous solution of 10 % SDS with 0.01 N HCl was added to release and dissolve formazan product. This was accomplished by overnight incubation of the plate at 37° C. After careful mixing of the microwell contents by placing the plates on an orbital shaker for 5 minutes the absorbencies were quantitated by spectrophotometry at 570 nm with a Ceres UV 900 HDI microwell plate reader (from Biotek Instruments Inc, Winooski, Vt. 05404-0998). Absorbance data was normalized to a blank well containing all reagents without cells and was collected semi-automatically.
Flat-bottom 96-well plates of tissue culture quality (Corning or Costar) were set up with two-fold serial dilutions of each agent to be tested, e.g., the RA and TCI, using a multichannel pipettor with adjustable volume, e.g., Costar or Rainin, to perform serial mixing. This set-up is diagrammed in FIG. 12. […] In each plate, a total of 59 wells then contained bivariate agent combinations, the bivariate serial dilutions.
Agents were serially diluted by serial mixing in two separate plates or series of wells, and then were combined prior to addition of a fixed volume and density of the U937 cells in a suspension calculated to deliver about 1×10^5 cells per well.
Cells were added after serial dilutions of the dThd had been dispensed. Cells were dispensed at about 10×10^4 cells per microwell to provide optimal sensitivity of detection of cell damage in subsequent calorimetric assays. […] The final volume of medium was 100 μl/well. The plates were further incubated at 37° C. for a total duration of 18-24 h. The dye MTT was used as a chromogenic indicator of the residual and metabolically active cell mass. (Described in Example 1).
In this MTT assay, normalized absorbance data was collected semi-automatically from each microculture well with a Ceres UV 900 HD1 plate reader, from Biotek Instruments Inc., Winooski, V T 05404-0998, stored in an EIA file under the Ceres 900 program, transferred in comma delimited format to a floppy diskette, and imported into a spread sheet program (Borland Quattro Pro) for data manipulations.

[1] = U-937, 4 h, U937, dThd […] 4 H, Cisplatin 0, read-out: MTT % inhibition, dThd only

**Q.** What does the source list for Cc1cn([C@H]2C[C@H](O)[C@@H](CO)O2)c(=O)[nH]c1=O [dThd, deoxythymidine]?
**A.** inhibition at 10 µM (U-937, 4 h, U937, dThd 0.01 mM 4 H, no Cisplatin, read-out: MTT % inhibition, dThd only): 7%; inhibition at 10 µM (U-937, 4 h, U937, dThd 0.01 mM (column 8, lowest) 4 H, no Cisplatin, read-out: MTT % inhibition, dThd only): 4%; inhibition at 20 µM (U-937, 4 h, U937, dThd 0.02 mM 4 H, no Cisplatin, read-out: MTT % inhibition, dThd only): 12%; inhibition at 50 µM (U-937, 4 h, U937, dThd 0.05 mM 4 H, no Cisplatin, read-out: MTT % inhibition, dThd only): 19%; inhibition at 90 µM (U-937, 4 h, U937, dThd 0.09 mM 4 H, Cisplatin 0, read-out: MTT % inhibition, dThd only): 22%; inhibition at 3000 µM (U-937, 4 h, U937, dThd 3.00 mM 4 H, Cisplatin 0, read-out: MTT % inhibition, dThd only): 56%; inhibition at 190 µM [1]: 29%; inhibition at 380 µM [1]: 32%; inhibition at 760 µM [1]: 40%; inhibition at 1500 µM [1]: 48%; inhibition at 10 µM (U-937, U937, dThd 0.01 mM (c20) for 0 H (added with STSP), STSP for 18 H, total 18 H, STSP nM: 100,50,25,12.6,6.25,3.13, r28 dThd alone, read-out: Growth inhibition (MTT), dThd for 0 H, dThd 0.01 mM (ninth dilution)): 4%; inhibition at 10 µM (U-937, U937, dThd 0.01 mM (c20) for 4 H, STSP for 14 H, total 18 H, STSP nM: 100,50,25,12.5,6.25,3.125, r14 dThd alone, read-out: Growth inhibition (MTT), dThd 0.01 mM (ninth dilution)): -2%; inhibition at 10 µM (U-937, U937, dThd 0.01 mM (c22, last dilution) for 0 H (added with STSP), STSP for 18 H, total 18 H, STSP nM: 100,50,25,12.6,6.25,3.13, r28 dThd alone, read-out: Growth inhibition (MTT), dThd for 0 H, dThd 0.01 mM (tenth, last dilution)): 3%; inhibition at 10 µM (U-937, U937, dThd 0.01 mM (c22, last two-fold dilution) for 4 H, STSP for 14 H, total 18 H, STSP nM: 100,50,25,12.5,6.25,3.125, r14 dThd alone, read-out: Growth inhibition (MTT), dThd 0.01 mM (tenth, last dilution)): -7%; inhibition at 20 µM (U-937, U937, dThd 0.02 mM for 0 H (added with STSP), STSP for 18 H, total 18 H, STSP nM: 100,50,25,12.6,6.25,3.13, r28 dThd alone, read-out: Growth inhibition (MTT), dThd for 0 H, dThd 0.02 mM): 6%; inhibition at 20 µM (U-937, U937, dThd 0.02 mM for 4 H, STSP for 14 H, total 18 H, STSP nM: 100,50,25,12.5,6.25,3.125, r14 dThd alone, read-out: Growth inhibition (MTT), dThd 0.02 mM): 11%; inhibition at 50 µM (U-937, U937, dThd 0.05 mM for 4 H, STSP for 14 H, total 18 H, STSP nM: 100,50,25,12.5,6.25,3.125, r14 dThd alone, read-out: Growth inhibition (MTT), dThd 0.05 mM): 10%; inhibition at 60 µM (U-937, U937, dThd 0.06 mM for 0 H (added with STSP), STSP for 18 H, total 18 H, STSP nM: 100,50,25,12.6,6.25,3.13, r28 dThd alone, read-out: Growth inhibition (MTT), dThd for 0 H, dThd 0.06 mM): 10%; inhibition at 90 µM (U-937, U937, dThd 0.09 mM for 0 H (added with STSP), STSP for 18 H, total 18 H, STSP nM: 100,50,25,12.6,6.25,3.13, r28 dThd alone, read-out: Growth inhibition (MTT), dThd for 0 H, dThd 0.09 mM): 12%; inhibition at 90 µM (U-937, U937, dThd 0.09 mM for 4 H, STSP for 14 H, total 18 H, STSP nM: 100,50,25,12.5,6.25,3.125, r14 dThd alone, read-out: Growth inhibition (MTT), dThd 0.09 mM): 14%; inhibition at 3000 µM (U-937, U937, dThd 3.00 mM for 0 H (added with STSP), STSP for 18 H, total 18 H, STSP nM: 100,50,25,12.6,6.25,3.13, r28 dThd alone, read-out: Growth inhibition (MTT), dThd for 0 H, dThd 3.00 mM): 38%; inhibition at 3000 µM (U-937, U937, dThd 3.00 mM for 4 H, STSP for 14 H, total 18 H, STSP nM: 100,50,25,12.5,6.25,3.125, r14 dThd alone, read-out: Growth inhibition (MTT), dThd 3.00 mM): 50%; inhibition at 190 µM (U-937, read-out: Growth inhibition (MTT), dThd […], U937, dThd […] for 4 H, STSP for 14 H, total 18 H, STSP nM: 100,50,25,12.5,6.25,3.125, r14 dThd alone, read-out: Growth inhibition (MTT), dThd 0.19 mM): 18%
